SMILES strings stand for the structures.

One test addresses T1, BRD4-BD1 (Homo sapiens, UniProt O60885).
T1 construct: made in house; host or cells: T7 phage grown in an E. coli host derived from the BL21 strain
Description: bromoKdELECT assay for binding affinity to BRD4-BD1. Particulars: binding to BRD4-BD1, Table 4. How it is done: (§1) Compounds were tested using a bromoKdELECT assay. T7 phage strains displaying bromodomains were grown in parallel in 24-well blocks in an E. coli host derived from the BL21 strain. E. coli were grown to log-phase and infected with T7 phage from a frozen stock (multiplicity of infection=0.4) and incubated with shaking at 32° C. until lysis (90-150 minutes). The lysates were centrifuged (5,000×g) and filtered (0.2 μm) to remove cell debris. Streptavidin-coated magnetic beads were treated with biotinylated small molecule or acetylated peptide ligands for 30 minutes at room temperature to generate affinity resins for bromodomain assays. The liganded beads were blocked with excess biotin and washed with blocking buffer (SeaBlock (Pierce), 1% BSA, 0.05% Tween 20, 1 mM DTT) to remove unbound ligand and to reduce nonspecific phage binding. Binding reactions were assembled by combining bromodomains, liganded affinity beads, and test compounds in 1× binding buffer (17% SeaBlock, 0.33×PBS, 0.04% Tween 20, 0.02% BSA, 0.004% Sodium azide, 7.4 mM DTT). Test compounds were prepared as 1000× stocks in 100% DMSO. Kds were determined using an 11-point 3-fold compound dilution series with one DMSO control point. All compounds for Kd measurements are distributed by acoustic transfer (non-contact dispensing) in 100% DMSO. The compounds were then diluted directly into the assays such that the final concentration of DMSO was 0.09%. All reactions performed in polypropylene 384-well plates. Each was a final volume of 0.02 ml. The assay plates were incubated at room temperature with shaking for 1 hour and the affinity beads were washed with wash buffer (1×PBS, 0.05% Tween 20). The beads were then resuspended in elution buffer (1×PBS, 0.05% Tween […] non-biotinylated affinity ligand) and incubated at room temperature with shaking for 30 minutes. The bromodomain concentration in the eluates was measured by qPCR.

The next test concerns the target T2, BRD4-BD2 (Homo sapiens, UniProt O60885).
T2 construct: made in house; host or cells: T7 phage grown in an E. coli host derived from the BL21 strain
Description: bromoKdELECT assay for binding affinity to BRD4-BD2. Particulars: binding to BRD4-BD2, Table 5. How it is done:
as §1, with “[…])” for “μm)”

For test [1], the system named is T-Rex 293 cell line SC3 cells having increased expression of androgen receptor protein due to exposure to doxycycline. Briefly: Cellular growth inhibition assay, T-Rex 293 SC3 cells with doxycycline (CellTiter-Glo, 72 hours). It counts as cell-based. Particulars: 72 h, T-Rex 293 SC3 cells with increased androgen receptor expression due to doxycycline (10 ng/mL). Put shortly:
(§2)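 Growth inhibition is measured in an inducible AR-expressing T-Rex 293 clone, SC3, cultured with or without 10 ng/mL doxycycline in hormone-depleted medium. Test compounds are applied for 72 hours. GI50 values derive from CellTiter-Glo 2.0 signal fitted by four-parameter regression.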

Test [2] relates to T-Rex 293 cell line SC3 cells lacking increased expression of androgen receptor protein. Briefly: Cellular growth inhibition assay, T-Rex 293 SC3 cells without doxycycline (CellTiter-Glo, 72 hours). It counts as cell-based. Particulars: T-Rex 293 cell line SC3 cells not exposed to doxycycline (lacking increased androgen receptor expression). Put shortly: as §2

As for `CCNC(=O)C[C@@H]1N=C(c2ccc(CCCC3CCN(c4ccc(C(=O)N[C@H]5CC[C@H](Oc6ccc(C#N)c(Cl)c6)CC5)nn4)CC3)cc2)c2c(sc(C)c2C)-n2c(C)nnc21` [I-51], the Kd was 50 to 500 nM at BRD4-BD1 and under 50 nM on BRD4-BD2. Further, the GI50 in test [1] is under 500 nM; in test [2], 500 to 1500 nM.
